Results taken from paper PMC8880098, “Synthesis, Antibacterial Evaluation, and Computational Studies of a Diverse Set of Linezolid Conjugates” (Pharmaceuticals, 2022).
Converted amounts (≈) assume the structure as drawn. Read-outs that look alike come from different tables or passages of the source.

Assays:
[1] = test system: Bacillus subtilis ATCC 6633; experiment: Antibacterial MIC, microdilution susceptibility test (CLSI); assay type: cell-based
Source text: (§1) The synthesized linezolid conjugates (3a–k, 5a–f, 7a–c, 9a–c, 11a–f, 13, and 15) were subjected for antimicrobial properties determination against Gram-positive (Staphylococcus aureus ATCC 6538, Bacillus subtilis ATCC 6633) and Gram-negative (Pseudomonas aeruginosa ATCC 15692, Escherichia coli ATCC 47076) bacteria by the standard technique.
(§2) Antibacterial properties of the synthesized compounds (3a–k, 5a–f, 7a–c, 9a–c, 11a–f, 13 and 15) were screened against Gram-positive (Staphylococcus aureus ATCC 6538, Bacillus subtilis ATCC 6633) and Gram-negative (Pseudomonas aeruginosa ATCC 15,692 and Escherichia coli ATCC 47076) bacteria utilizing the standard technique. Linezolid was used as a standard reference/drug in the current study. The tested bacterial strains were obtained from MERCIN Center, Faculty of Agriculture, Ain Shams University, Cairo, Egypt.
(§3) To determine the antibacterial activity, stock solutions of the tested compounds and standard reference were prepared with up to 100% DMSO and stored at […]. If necessary, the solutions were heated to 40–60 °C before testing to facilitate complete dissolution. Double distilled water was used in all dilutions prepared. […] A microdilution susceptibility test was used for MIC determination (Mueller–Hinton broth in 96-well plates) according to the CLSI (the Clinical and Laboratory Standards Institute, Malvern, PA, USA). The bacterial inoculum was adjusted to approximately 2.5–3 × 10^4 cells/mL in Mueller–Hinton broth and incubated in a ratio of 1:1 with the test derivatives in polystyrene 96-well flat-bottom microplates. Positive growth control (without test derivatives) and negative control (without bacteria) were included. The microplates were placed in an incubator set to 37 °C for 24 h. Absorbance was measured at 620 nm at the end of the incubation period. The cut-off level for follow-up studies was defined as a minimum of 90% inhibition of growth compared to the untreated sample. Experiments were conducted once in triplicate. For selected compounds, minimum inhibitory concentration (MIC) values were determined by dose–response experiments. Experiments were performed at least twice, in triplicate per concentration tested.

[2] = test system: Escherichia coli ATCC 47076; experiment: as above; assay type: cell-based
Source text: as §1, §2, §3

[3] = test system: Pseudomonas aeruginosa ATCC 15692; experiment: as above; assay type: cell-based
Source text: as §1, §2, §3

[4] = test system: Staphylococcus aureus ATCC 6538; experiment: as above; assay type: cell-based
Source text: as §1, §2, §3

[5] = test system: Bacillus subtilis ATCC 6633; experiment: microbe, parasite or virus in culture; design: species or system bacteria; Broth microdilution MIC in Mueller-Hinton broth, absorbance at 620 nm; details: ATCC6633, 24 h, read-out: Observed MIC, uM (B. subtilis)
Source text: as §3, with “Antibacterial properties of the synthesized compounds (3a–k, 5a–f, 7a–c, 9a–c, 11a–f, 13 and 15) were screened against Gram-positive (Staphylococcus aureus ATCC 6538, Bacillus subtilis ATCC 6633) and Gram-negative (Pseudomonas aeruginosa ATCC 15,692 and Escherichia coli ATCC 47076) bacteria utilizing the standard technique. Linezolid was used as a standard reference/drug in the current study. The tested bacterial strains were obtained from MERCIN Center, Faculty of Agriculture, Ain Shams University, Cairo, Egypt. To” for “To”

[6] = test system: Staphylococcus aureus ATCC 6538; experiment: microbe, parasite or virus in culture; design: species or system bacteria; Broth microdilution MIC in Mueller-Hinton broth, absorbance at 620 nm; details: ATCC6538, 24 h, read-out: Observed MIC, uM (S. aureus)
Source text: as §3, with “Antibacterial properties of the synthesized compounds (3a–k, 5a–f, 7a–c, 9a–c, 11a–f, 13 and 15) were screened against Gram-positive (Staphylococcus aureus ATCC 6538, Bacillus subtilis ATCC 6633) and Gram-negative (Pseudomonas aeruginosa ATCC 15,692 and Escherichia coli ATCC 47076) bacteria utilizing the standard technique. Linezolid was used as a standard reference/drug in the current study. The tested bacterial strains were obtained from MERCIN Center, Faculty of Agriculture, Ain Shams University, Cairo, Egypt. To” for “To”

[7] = Bacillus subtilis, ATCC6633, 24 h, Mueller–Hinton broth, 37 °C, 24 h, read-out: MIC, μg/mL ± SE, B. Subtilis (ATCC 6633)
[8] = ATCC47076, Mueller–Hinton broth, 37 °C, 24 h, read-out: MIC, μg/mL ± SE, E. Coli (ATCC 47076)
[9] = ATCC47076, value in parentheses, read-out: MIC (μmol), E. Coli (ATCC 47076) (converted)
[10] = ATCC15692, Mueller–Hinton broth, 37 °C, 24 h, read-out: MIC, μg/mL ± SE, P. Aeruginosa (ATCC 15692)
[11] = ATCC15692, value in parentheses, read-out: MIC (μmol), P. Aeruginosa (ATCC 15692) (converted)
[12] = Staphylococcus aureus, ATCC6538, 24 h, Mueller–Hinton broth, 37 °C, 24 h, read-out: MIC, μg/mL ± SE, S. Aureus (ATCC 6538)
[13] = Bacillus subtilis, ATCC6633, as quoted in running text, read-out: MIC against B. subtilis
[14] = Bacillus subtilis, ATCC6633, value in parentheses, read-out: MIC (μmol), B. Subtilis (ATCC 6633) (converted)
[15] = Staphylococcus aureus, ATCC6538, as quoted in running text, read-out: MIC against S. aureus
[16] = Staphylococcus aureus, ATCC6538, value in parentheses, read-out: MIC (μmol), S. Aureus (ATCC 6538) (converted)

| Structure (SMILES) | MIC [1, 7] [µg/mL] | MIC [2, 8] [µg/mL] | MIC [2, 9] [µM] | MIC [3, 10] [µg/mL] | MIC [3, 11] [µM] | MIC [4, 12] [µg/mL] | MIC [5] [µM] | MIC [6] [µM] | MIC [1, 13] [µM] | MIC [1, 14] [µM] | MIC ([1]; read-out: MIC against B. subtilis) [µM] | MIC [4, 15] [µM] | MIC [4, 16] [µM] | MIC ([4]; read-out: MIC against S. aureus) [µM] | MIC ([3]; ATCC15692, read-out: MIC against P. aeruginosa) [µM] |
| --- | --- | --- | --- | --- | --- | --- | --- | --- | --- | --- | --- | --- | --- | --- | --- |
| O=C(CNC(=O)OCc1ccccc1)NC[C@H]1CN(c2ccc(N3CCOCC3)c(F)c2)C(=O)O1 [Compound 3a, Benzyl (S)-(2-(((3-(3-fluoro-4-morpholinophenyl)-2-oxooxazolidin-5-yl)methyl)amino)-2-oxoethyl)carbamate] | 4 ± 0.3 | 32 ± 1 | 65.8 | 64 ± 1.4 | 132 | 16 ± 2.1 | 8.22 (≈ 4 µg/mL) | 32.9 (≈ 16 µg/mL) | – | – | – | – | – | – | – |
| C[C@H](NC(=O)OCc1ccccc1)C(=O)NC[C@H]1CN(c2ccc(N3CCOCC3)c(F)c2)C(=O)O1 [Compound 3b, Benzyl ((S)-1-((((S)-3-(3-fluoro-4-morpholinophenyl)-2-oxooxazolidin-5-yl)methyl)amino)-1-oxopropan-2-yl)carbamate] | 32 ± 2.1 | 32 ± 2.5 | 63.9 | 64 ± 1.9 | 128 | 32 ± 1.5 | 63.9 (≈ 32 µg/mL) | 63.9 (≈ 32 µg/mL) | – | – | – | – | – | – | – |
| CC(C)[C@H](NC(=O)OCc1ccccc1)C(=O)NC[C@H]1CN(c2ccc(N3CCOCC3)c(F)c2)C(=O)O1 [Compound 3c, Benzyl ((S)-1-((((S)-3-(3-fluoro-4-morpholinophenyl)-2-oxooxazolidin-5-yl)methyl)amino)-3-methyl-1-oxobutan-2-yl)carbamate] | 32 ± 2.7 | 32 ± 1.6 | 60.5 | 64 ± 2.9 | 121 | 32 ± 1.1 | 60.5 (≈ 32 µg/mL) | 60.5 (≈ 32 µg/mL) | – | – | – | – | – | – | – |
| CSCC[C@H](NC(=O)OCc1ccccc1)C(=O)NC[C@H]1CN(c2ccc(N3CCOCC3)c(F)c2)C(=O)O1 [Compound 3d, Benzyl ((S)-1-((((S)-3-(3-fluoro-4-morpholinophenyl)-2-oxooxazolidin-5-yl)methyl)amino)-4-(methylthio)-1-oxobutan-2-yl)carbamate] | – | 32 ± 2 | 57.1 | 64 ± 3.1 | 114 | 32 ± 1.6 | 57.1 (≈ 32 µg/mL) | 57.1 (≈ 32 µg/mL) | – | – | – | – | – | – | – |
| CC(C)[C@H](NC(=O)OC(C)(C)C)C(=O)NC[C@H]1CN(c2ccc(N3CCOCC3)c(F)c2)C(=O)O1 [Compound 3h, Tert-butyl ((S)-1-((((S)-3-(3-fluoro-4-morpholinophenyl)-2-oxooxazolidin-5-yl)methyl)amino)-3-methyl-1-oxobutan-2-yl)carbamate] | 32 ± 0.7 | 32 ± 1.1 | 64.7 | 32 ± 0.5 | 64.7 | 32 ± 1.3 | 64.7 (≈ 32 µg/mL) | 64.7 (≈ 32 µg/mL) | – | – | – | – | – | – | – |
| CSCC[C@H](NC(=O)OC(C)(C)C)C(=O)NC[C@H]1CN(c2ccc(N3CCOCC3)c(F)c2)C(=O)O1 [Compound 3i, Tert-butyl ((S)-1-((((S)-3-(3-fluoro-4-morpholinophenyl)-2-oxooxazolidin-5-yl)methyl)amino)-4-(methylthio)-1-oxobutan-2-yl)carbamate] | 32 ± 1.4 | 32 ± 0.5 | 60.8 | 32 ± 0.8 | 60.8 | 32 ± 2.1 | 60.8 (≈ 32 µg/mL) | 60.8 (≈ 32 µg/mL) | – | – | – | – | – | – | – |
| CC[C@H](C)[C@H](NC(=O)OC(C)(C)C)C(=O)NC[C@H]1CN(c2ccc(N3CCOCC3)c(F)c2)C(=O)O1 [Compound 3k, Tert-butyl ((2S,3S)-1-((((S)-3-(3-fluoro-4-morpholinophenyl)-2-oxooxazolidin-5-yl)methyl)amino)-3-methyl-1-oxopentan-2-yl)carbamate] | 32 ± 1.3 | 32 ± 2.1 | 62.9 | 32 ± 1.3 | 62.9 | 32 ± 2.1 | 62.9 (≈ 32 µg/mL) | 62.9 (≈ 32 µg/mL) | – | – | – | – | – | – | – |
| O=C(NC[C@H]1CN(c2ccc(N3CCOCC3)c(F)c2)C(=O)O1)c1ccc(F)cc1 [Compound 5b, (S)-4-Fluoro-N-((3-(3-fluoro-4-morpholinophenyl)-2-oxooxazolidin-5-yl)methyl) benzamide] | 1 ± 0.1 | 32 ± 2.4 | 76.7 | 32 ± 1.2 | 76.7 | 4 ± 0.1 | – | – | 2.33 to 2.5 | 2.4 | 2.396 | 9.34 to 10 | 9.58 | 9.583 | – |
| O=C(NC[C@H]1CN(c2ccc(N3CCOCC3)c(F)c2)C(=O)O1)c1ccc(Cl)cc1 [Compound 5c, (S)-4-Chloro-N-((3-(3-fluoro-4-morpholinophenyl)-2-oxooxazolidin-5-yl)methyl) benzamide] | 2 ± 0.1 | 32 ± 0.7 | 73.8 | 32 ± 1.9 | 73.8 | 8 ± 0.3 | – | 18.4 (≈ 8 µg/mL) | 4.61 to 5 | 4.61 | – | – | – | – | – |
| O=C(NC[C@H]1CN(c2ccc(N3CCOCC3)c(F)c2)C(=O)O1)c1ccc([N+](=O)[O-])cc1 [Compound 5d, (S)-N-((3-(3-Fluoro-4-morpholinophenyl)-2-oxooxazolidin-5-yl)methyl)-4-nitro benzamide] | 1 ± 0.1 | 32 ± 2.2 | 72 | 32 ± 1.6 | 72 | 2 ± 0.1 | – | – | 2.25 | 2.25 | – | 4.5 | 4.5 | – | – |
| O=C1O[C@@H](CNCc2ccc(F)cc2)CN1c1ccc(N2CCOCC2)c(F)c1 [Compound 11a, (S)-3-(3-Fluoro-4-morpholinophenyl)-5-[{(4-fluorobenzyl)amino}methyl] oxazolidin-2-one] | 32 ± 1.2 | 32 ± 2.5 | 79.3 | 32 ± 2.2 | 79.3 | 32 ± 2.7 | 79.3 (≈ 32 µg/mL) | 79.3 (≈ 32 µg/mL) | – | – | – | – | – | – | – |
| CC(=O)NC[C@H]1CN(c2ccc(N3CCOCC3)c(F)c2)C(=O)O1 [Linezolid] | 0.25 ± 0.01 | 8 ± 0.2 | 23.7 | 32 ± 0.7 | 94.9 | 2 ± 0.1 | – | – | – | 0.741 | – | 5.93 | 5.93 | – | 94.9 |
